We go through 19 compounds from patent US20230115945A1, “AMINOPYRIMIDINE COMPOUNDS” (TYRA BIOSCIENCES, INC., priority 2019, published 2023).

pKd: −log10 of the molar value.

What all share (conditions): 11-point 3-fold dilution, qPCR readout
In general terms: In qPCR the cycle at which signal appears reflects the starting amount.

Test [1] concerns the target T1, FGFR1 (Homo sapiens, UniProt P11362).
T1 construct: made in house; host or cells: E. coli host derived from BL21, infected with T7 phage
The experiment in a line: Kinase binding assay (Kd), FGFR1. The method, then:
(§1) Kinase-tagged T7 phage strains were prepared in an E. coli host derived from the BL21 strain. E. coli were grown to log-phase and infected with T7 phage and incubated with shaking at 32° C. until lysis. The lysates were centrifuged and filtered to remove cell debris. Streptavidin-coated magnetic beads were treated with biotinylated small molecule ligands for 30 minutes at room temperature to generate affinity resins for kinase assays. The liganded beads were blocked with excess biotin and washed with blocking buffer SeaBlock (Pierce), 1% BSA, 0.05% Tween 20, 1 mM DTT to remove unbound ligand and to reduce non-specific binding. Binding reactions were assembled by combining kinases, liganded affinity beads, and test compounds in 1× binding buffer (20% SeaBlock, 0.17×PBS, 0.05% Tween 20, 6 mM DTT).
(§2) Test compounds were prepared as 111X stocks in 100% DMSO. Kds were determined using an 11-point 3-fold compound dilution series with three DMSO control points. All compounds for Kd measurements are distributed by acoustic transfer (non-contact dispensing) in 100% DMSO. The compounds were then diluted directly into the assays such that the final concentration of DMSO was 0.9%. All reactions performed in polypropylene 384-well plate. Each was a final volume of 0.02 ml. The assay plates were incubated at room temperature with shaking for 1 hour and the affinity beads were washed with wash buffer (lx PBS, 0.05% Tween 20). The beads were then re-suspended in elution buffer (lx PBS, 0.05% Tween 20, 0.5 μM non-biotinylated affinity ligand) and incubated at room temperature with shaking for 30 minutes. The kinase concentration in the eluates was measured by qPCR.
(§3) Binding constants were calculated with a standard dose-response curve using the Hill equation: […]
(§4) The Hill Slope was set to −1. Curves were fitted using a non-linear least square fit with the Levenberg-Marquardt algorithm.

For test [2], the target named is T2, FGFR2 (Homo sapiens, UniProt P21802).
T2 construct: made in house; host or cells: E. coli host derived from BL21, infected with T7 phage
The experiment in a line: Kinase binding assay (Kd), FGFR2. The method, then: as §1, §2, §3, §4

Test [3] concerns the target T3, FGFR3 (Homo sapiens, UniProt P22607).
T3 construct: made in house; host or cells: E. coli host derived from BL21, infected with T7 phage
The experiment in a line: Kinase binding assay (Kd), FGFR3. On the procedure: as §1, §2, §3, §4

In test [4] the target is T4, FGFR3 (V555M) (Homo sapiens, UniProt P22607, V555M).
T4 construct: made in house; host or cells: E. coli host derived from BL21, infected with T7 phage
The experiment in a line: Kinase binding assay (Kd), FGFR3 (V555M). On the procedure:
as §1, §2, §3, §4

Test [5] has as its target T5, FGFR4 (Homo sapiens, UniProt P22455).
T5 construct: made in house; host or cells: E. coli host derived from BL21, infected with T7 phage
The experiment in a line: Kinase binding assay (Kd), FGFR4. The method, then:
as §1, §2, §3, §4

T3 sequence (P22607 23-806): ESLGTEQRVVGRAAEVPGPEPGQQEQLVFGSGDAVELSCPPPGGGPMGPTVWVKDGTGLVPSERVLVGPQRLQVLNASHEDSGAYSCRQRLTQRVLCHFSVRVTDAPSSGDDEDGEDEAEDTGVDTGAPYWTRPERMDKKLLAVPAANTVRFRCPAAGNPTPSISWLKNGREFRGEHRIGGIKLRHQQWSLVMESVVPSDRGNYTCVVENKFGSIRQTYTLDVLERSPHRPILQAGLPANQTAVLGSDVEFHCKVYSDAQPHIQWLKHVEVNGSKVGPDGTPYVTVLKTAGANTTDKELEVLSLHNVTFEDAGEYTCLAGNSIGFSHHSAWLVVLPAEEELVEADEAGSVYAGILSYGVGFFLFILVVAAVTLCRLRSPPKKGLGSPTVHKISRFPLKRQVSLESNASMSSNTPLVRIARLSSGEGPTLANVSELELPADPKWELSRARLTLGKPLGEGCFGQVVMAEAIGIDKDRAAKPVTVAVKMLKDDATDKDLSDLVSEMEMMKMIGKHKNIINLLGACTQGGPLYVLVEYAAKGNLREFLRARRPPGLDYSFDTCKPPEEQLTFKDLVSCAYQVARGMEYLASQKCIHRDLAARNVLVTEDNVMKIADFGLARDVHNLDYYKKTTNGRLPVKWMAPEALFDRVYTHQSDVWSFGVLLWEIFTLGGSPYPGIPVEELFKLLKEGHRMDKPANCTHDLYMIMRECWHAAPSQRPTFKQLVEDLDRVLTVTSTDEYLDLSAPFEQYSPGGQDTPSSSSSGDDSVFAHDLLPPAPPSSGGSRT
T1 sequence (P11362 22-822): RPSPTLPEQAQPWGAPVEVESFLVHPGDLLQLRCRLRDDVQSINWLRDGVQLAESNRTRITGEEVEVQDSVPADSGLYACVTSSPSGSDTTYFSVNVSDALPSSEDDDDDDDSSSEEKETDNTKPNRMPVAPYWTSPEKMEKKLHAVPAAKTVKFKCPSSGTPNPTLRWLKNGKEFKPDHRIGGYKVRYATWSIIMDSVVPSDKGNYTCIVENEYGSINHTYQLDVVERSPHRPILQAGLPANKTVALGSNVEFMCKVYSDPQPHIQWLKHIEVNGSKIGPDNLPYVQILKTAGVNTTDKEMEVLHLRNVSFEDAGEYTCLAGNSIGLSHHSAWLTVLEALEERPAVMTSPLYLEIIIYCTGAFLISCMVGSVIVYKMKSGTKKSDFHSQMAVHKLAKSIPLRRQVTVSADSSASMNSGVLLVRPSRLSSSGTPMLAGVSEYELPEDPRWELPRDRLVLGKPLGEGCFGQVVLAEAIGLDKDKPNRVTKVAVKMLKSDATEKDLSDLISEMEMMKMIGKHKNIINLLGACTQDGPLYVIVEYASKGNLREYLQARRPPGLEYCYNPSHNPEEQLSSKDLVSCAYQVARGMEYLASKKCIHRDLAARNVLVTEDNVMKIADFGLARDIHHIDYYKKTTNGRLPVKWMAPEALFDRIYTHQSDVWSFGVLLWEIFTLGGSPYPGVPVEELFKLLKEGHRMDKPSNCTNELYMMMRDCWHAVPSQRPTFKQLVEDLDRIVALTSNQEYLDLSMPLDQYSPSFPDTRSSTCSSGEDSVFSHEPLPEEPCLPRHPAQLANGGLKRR
T5 sequence (P22455 22-802): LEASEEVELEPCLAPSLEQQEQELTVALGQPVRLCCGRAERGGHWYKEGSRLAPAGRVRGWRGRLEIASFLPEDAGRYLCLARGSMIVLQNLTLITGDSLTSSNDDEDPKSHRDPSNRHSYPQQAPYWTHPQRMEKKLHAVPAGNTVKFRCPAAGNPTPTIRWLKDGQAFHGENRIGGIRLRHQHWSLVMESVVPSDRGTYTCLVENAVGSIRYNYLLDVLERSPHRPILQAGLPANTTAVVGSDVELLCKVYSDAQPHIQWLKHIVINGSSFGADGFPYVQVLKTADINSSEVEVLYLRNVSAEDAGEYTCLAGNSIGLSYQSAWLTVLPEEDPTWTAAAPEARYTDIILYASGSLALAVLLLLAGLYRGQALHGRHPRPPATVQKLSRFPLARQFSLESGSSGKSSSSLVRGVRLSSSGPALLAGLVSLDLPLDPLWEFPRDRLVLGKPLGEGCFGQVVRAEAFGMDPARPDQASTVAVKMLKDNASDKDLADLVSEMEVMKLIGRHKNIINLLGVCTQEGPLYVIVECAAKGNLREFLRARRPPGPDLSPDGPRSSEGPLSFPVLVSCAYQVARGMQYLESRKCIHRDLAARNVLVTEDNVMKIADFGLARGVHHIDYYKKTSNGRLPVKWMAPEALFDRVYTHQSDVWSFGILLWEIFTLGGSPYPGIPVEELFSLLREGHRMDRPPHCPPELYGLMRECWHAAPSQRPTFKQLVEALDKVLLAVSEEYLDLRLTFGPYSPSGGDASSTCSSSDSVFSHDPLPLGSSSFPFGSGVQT
T2 sequence (P21802 22-821): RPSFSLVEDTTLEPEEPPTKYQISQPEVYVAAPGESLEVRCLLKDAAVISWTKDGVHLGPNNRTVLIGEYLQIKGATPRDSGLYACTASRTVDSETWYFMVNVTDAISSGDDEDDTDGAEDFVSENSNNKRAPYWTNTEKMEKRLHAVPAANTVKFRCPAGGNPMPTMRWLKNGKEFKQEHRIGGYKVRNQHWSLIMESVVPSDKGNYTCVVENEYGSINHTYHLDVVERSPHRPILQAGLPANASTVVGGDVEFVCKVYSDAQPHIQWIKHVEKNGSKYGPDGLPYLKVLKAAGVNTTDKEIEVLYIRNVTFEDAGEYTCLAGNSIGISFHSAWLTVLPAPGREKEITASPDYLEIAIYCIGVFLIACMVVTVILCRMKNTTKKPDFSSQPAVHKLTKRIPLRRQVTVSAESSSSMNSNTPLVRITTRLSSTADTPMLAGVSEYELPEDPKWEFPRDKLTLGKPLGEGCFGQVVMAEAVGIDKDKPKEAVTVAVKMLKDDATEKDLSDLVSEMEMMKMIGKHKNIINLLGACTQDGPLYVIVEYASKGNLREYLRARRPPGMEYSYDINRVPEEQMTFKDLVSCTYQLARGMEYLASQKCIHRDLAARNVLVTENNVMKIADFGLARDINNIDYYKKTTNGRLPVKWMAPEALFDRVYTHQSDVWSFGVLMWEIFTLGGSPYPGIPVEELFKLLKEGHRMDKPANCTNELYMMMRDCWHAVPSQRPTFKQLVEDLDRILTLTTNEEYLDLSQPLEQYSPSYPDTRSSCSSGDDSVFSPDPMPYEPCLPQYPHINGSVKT
T4 sequence (P22607 23-806 V555M): as the sequence (P22607 23-806) above, with V533M counted along it

For the compound `CS(C)(=O)=Nc1cccc(Nc2ncc(Cl)c(-c3c[nH]c4ccccc34)n2)c1` [Example 7, 5-chloro-N-[3-[[dimethyl(oxo)-λ^6-sulfanylidene]amino]phenyl]-4-(1H-indol-3-yl)pyrimidin-2-amine], the equilibrium dissociation constant (Kd) (commonly a measure of binding affinity in units of concentration) in test [1] came to 21 nM; in test [2] it was 140 nM; in test [3], 40 nM; in test [4] it was 4 nM. In test [5], the pKd – broadly, −log10 of the Kd, conventionally taken in molar units – is 6.55.

Consider `CS(C)(=O)=Nc1ccc(Nc2ncc(Cl)c(-c3c[nH]c4ccccc34)n2)cc1` [Example 8, 5-chloro-N-[4-[[dimethyl(oxo)-λ^6-sulfanylidene]amino]phenyl]-4-(1H-indol-3-yl)pyrimidin-2-amine], for which the Kd in test [1] is 19 nM; in test [2], 24 nM; in test [3], 29 nM; in test [4] it was 4 nM. The compound also gave a pKd in test [5] of 6.74.

As for `CCOc1cc(N=S(C)(C)=O)ccc1Nc1ncc(C)c(-c2c[nH]c3c(C)cccc23)n1` [Example 9, N-[4-[[dimethyl(oxo)-λ^6-sulfanylidene]amino]-2-ethoxy-phenyl]-5-methyl-4-(7-methyl-1H-indol-3-yl)pyrimidin-2-amine], the Kd came out at 350 nM in test [1], 3300 nM in test [2], 370 nM in test [3] and 57 nM in test [4]. The pKd in test [5] is 7.24.

Consider `CS(C)(=O)=Nc1ccc(Nc2nccc(-c3c[nH]c4ccccc34)n2)cc1` [Example 10, N-[4-[[dimethyl(oxo)-λ^6-sulfanylidene]amino]phenyl]-4-(1H-indol-3-yl)pyrimidin-2-amine], for which the Kd in test [1] was 350 nM; in test [2] it was 3300 nM; in test [3], 370 nM; in test [4] it was 57 nM. In test [5], this compound showed a pKd of 7.24.

As for `CS(C)(=O)=Nc1ccc(Nc2cc(-c3c[nH]c4ccccc34)ncn2)cc1` [Example 12, N-[4-[[dimethyl(oxo)-λ^6-sulfanylidene]amino]phenyl]-6-(1H-indol-3-yl)pyrimidin-4-amine], the Kd came out at 350 nM in test [1], 3300 nM in test [2], 370 nM in test [3] and 57 nM in test [4]. Besides, in test [5], the pKd was 7.24.

Consider `CS(C)(=O)=Nc1ccc(Nc2nccc(-n3ccc4ccccc43)n2)cc1` [Example 13, N-[4-[[dimethyl(oxo)-λ^6-sulfanylidene]amino]phenyl]-4-indol-1-yl-pyrimidin-2-amine], for which the Kd came to 350 nM in test [1], 3300 nM in test [2], 370 nM in test [3] and 57 nM in test [4]. In test [5], this compound gave a pKd of 7.24.

Consider `Cc1cnc(Nc2ccc(N=S(C)(C)=O)cc2)nc1-n1ccc2ccccc21` [Example 14, N-[4-[[dimethyl(oxo)-λ^6-sulfanylidene]amino]phenyl]-4-indol-1-yl-5-methyl-pyrimidin-2-amine], for which the Kd in test [1] turned out to be 190 nM; in test [2] it was 110 nM; in test [3] it was 170 nM; in test [4], 9 nM. For the same compound, the pKd in test [5] is 5.82.

On to `CN1CCS(=O)(=Nc2ccc(Nc3nccc(-n4ccc5ccccc54)n3)cc2)CC1` [Example 16, 4-Indol-1-yl-N-[4-[(4-methyl-1-oxo-1,4-thiazinan-1-ylidene)amino]phenyl]-pyrimidin-2-amine], for which the Kd in test [1] is 2200 nM; in test [2], 600 nM; in test [3], 570 nM; in test [4] it was 140 nM. The pKd in test [5] is 5.02.

For `C=CC(=O)Nc1cc(N=S(C)(C)=O)ccc1Nc1ncc(C)c(-c2c[nH]c3ccccc23)n1` [Example 20, N-[5-[[Dimethyl(oxo)-λ^6-sulfanylidene]amino]-2-[[4-(1H-indol-3-yl)-5-methyl-pyrimidin-2-yl]amino]phenyl]prop-2-enamide], the Kd stood at 37 nM in test [1], 51 nM in test [2], 27 nM in test [3] and 4 nM in test [4]. Moreover, the pKd in test [5] was 6.92.

For `Cc1ccc2c(-c3nc(Nc4ccc(N=S(C)(C)=O)cc4)ncc3C)c[nH]c2c1` [Example 28, N-[4-[[dimethyl(oxo)-λ^6-sulfanylidene]amino]phenyl]-5-methyl-4-(6-methyl-1H-indol-3-yl)pyrimidin-2-amine], the Kd in test [1] was 27 nM; in test [2], 63 nM; in test [3], 44 nM; in test [4] it was 4 nM. In test [5], this compound had a pKd of 6.54.

With `Cc1cnc(Nc2ccc(N=S(C)(C)=O)cc2)nc1-c1c[nH]c2cc(F)ccc12` [Example 29, N-[4-[[dimethyl(oxo)-λ^6-sulfanylidene]amino]phenyl]-4-(6-fluoro-1H-indol-3-yl)-5-methyl-pyrimidin-2-amine], the Kd was found to be 15 nM in test [1], 46 nM in test [2], 21 nM in test [3] and 4 nM in test [4]. This compound had a pKd in test [5] of 6.68.

In the case of `COc1ccc2c(-c3nc(Nc4ccc(N=S(C)(C)=O)cc4)ncc3C)c[nH]c2c1` [Example 30, N-[4-[[dimethyl(oxo)-λ^6-sulfanylidene]amino]phenyl]-4-(6-methoxy-1H-indol-3-yl)-5-methyl-pyrimidin-2-amine], the Kd in test [1] stood at 27 nM; in test [2] it was 41 nM; in test [3], 35 nM; in test [4], 2 nM. In test [5], this compound gave a pKd of 6.72.

For `COc1cc(Nc2ncc(C)c(-c3c[nH]c4c(F)cccc34)n2)ccc1N=S(C)(C)=O` [Example 32, N-[4-[[dimethyl(oxo)-λ^6-sulfanylidene]amino]-3-methoxy-phenyl]-4-(7-fluoro-1H-indol-3-yl)-5-methyl-pyrimidin-2-amine], the Kd came to 2 nM in test [1], 3 nM in test [2], 3 nM in test [3] and 1 nM in test [4]. The pKd in test [5] was 7.28.

Take `COc1cc(Nc2ncc(C)c(-c3c[nH]c4c(OC)cccc34)n2)ccc1N=S(C)(C)=O` [Example 33, N-[4-[[dimethyl(oxo)-λ^6-sulfanylidene]amino]-3-methoxy-phenyl]-4-(7-methoxy-1H-indol-3-yl)-5-methyl-pyrimidin-2-amine]: the Kd in test [1] came out at 4 nM; in test [2], 6 nM; in test [3] it was 19 nM; in test [4], 2 nM. This compound also showed a pKd in test [5] of 6.92.

Turning to `Cc1ccc2c(-c3nc(Nc4ccc(N5CCS(=N)(=O)CC5)cc4)ncc3C)c[nH]c2c1` [Example 34, N-[4-(1-imino-1-oxo-1,4-thiazinan-4-yl)phenyl]-5-methyl-4-(6-methyl-1H-indol-3-yl)pyrimidin-2-amine], the Kd in test [1] is 14 nM; in test [2], 39 nM; in test [3], 30 nM; in test [4] it was 2 nM. In addition, in test [5], the negative-log Kd (pKd) is 6.64.

With `COc1cc(N2CCS(=N)(=O)CC2)ccc1Nc1ncc(Cl)c(-c2c[nH]c3ccccc23)n1` [Example 35, 5-Chloro-N-[4-(1-imino-1-oxo-1,4-thiazinan-4-yl)-2-methoxy-phenyl]-4-(1H-indol-3-yl)pyrimidin-2-amine], the Kd in test [1] is 72 nM; in test [2], 200 nM; in test [3] it was 130 nM; in test [4], 9 nM. This compound gave a pKd in test [5] of 7.07.

Take `COc1cc(S(C)(=N)=O)ccc1Nc1ncc(Cl)c(-c2c[nH]c3ccccc23)n1` (centres unmarked) [Example 36, 5-Chloro-4-(1H-indol-3-yl)-N-[2-methoxy-4-(methylsulfonimidoyl)-phenyl]pyrimidin-2-amine]: the Kd in test [1] turned out to be 72 nM; in test [2], 67 nM; in test [3] it was 89 nM; in test [4] it was 4 nM. Also, the pKd in test [5] was 7.24.

As for `CN=S(C)(=O)c1ccc(Nc2ncc(Cl)c(-c3c[nH]c4ccccc34)n2)c(OC)c1` (centres unmarked) [Example 37, 5-Chloro-N-[4-(N,S-dimethylsulfonimidoyl)-2-methoxy-phenyl]-4-(1H-indol-3-yl)pyrimidin-2-amine], the Kd in test [1] worked out at 500 nM; in test [2], 1200 nM; in test [3] it was 290 nM; in test [4], 28 nM. Also, in test [5], the pKd is 6.92.

With `CCN1CCS(=O)(=Nc2ccc(Nc3ncc(Cl)c(-c4c[nH]c5ccccc45)n3)c(OC)c2)CC1` [Example 39, 5-Chloro-4-(1H-indol-3-yl)-N-[2-methoxy-4-[(4-ethyl-1-oxo-1,4-thiazinan-1-ylidene)-amino]phenyl]pyrimidin-2-amine], the Kd is 58 nM in test [1], 170 nM in test [2], 57 nM in test [3] and 6 nM in test [4]. In test [5], this compound had a pKd of 7.18.
